Experimental data from US20230227484A1, “PYRIMIDINE COMPOUND AS AXL INHIBITOR” (NANJING CHIA TAI TIANQING PHARMACEUTICAL CO., LTD., priority 2020, published 2023).

Tests used:
[1] = Pharmacokinetic study of compounds on ICR mice; assay type: in vivo; conditions: mouse, po, male ICR mice, plasma; for Cmax / Tmax / half-life: 10 mg-kg^1 by gavage; for AUC(0-t): 10 mg/kg-kg^1 by gavage, read-out: AUC0-24
Description: Each compound is prepared with DMSO into a 10 mg/mL stock solution.
Preparation of mixed solvent: Tween 80: PEG400: Water=1:9:90 (v/v/v)
450 μl of the compound DMSO stock solution with a concentration of 10 mg/nmL is accurately sucked into a glass bottle, and added with an appropriate volume of DMSO and mixed solvent, wherein a ratio of the solvent in the final formulation is DMSO: mixed solvent (v/v)=10:90. The mixed solution is vortexed (or ultrasonically treated), and dispersed uniformly to obtain 4.5 mL. administration test solutions with a concentration of 1 mg/nL, respectively.
Male 6-10 week old ICR mice (sourced from: Beijing Vital River Laboratory Animal Technology Co., Ltd.) are taken, 6 mice in each group. The mice are fasted overnight and fed 4 h after the administration. On the day of the experiment, the mice are administrated with 10 mg-kg^1 of compound test solution by gavage. After administration, about 100 μL of blood is harvested from the orbits of the mice at 0 min, 5 mmn, 15 mmn, 30 min, 14 h 2 h, 4 h, 8 h, and 24 h, and placed in EDTA-K2 anticoagulant tubes. The whole blood sample is centrifuged at 1500 to 1600 g for 10 mm, and the plasma obtained by separation is stored in a refrigerator at −40 to −20° C. for biological sample analysis. The blood drug concentration is determined by an LC-MS/MS method.
A non-compartmental model in Pharsight Phoenix 7.0 is used to calculate pharmacokinetic parameters. The specific results are shown in 5 the table below.

[2] = tested on: human acute monocytic leukemia cell MV-4-11 xenograft tumor; experiment: In-vivo efficacy of compound for MV4-11 xenograft tumor model of nude mouse; conditions: MV4-11, po, once a day, end of experiment, MV-4-11 xenograft nude mice; for response vs control in vivo at 5 mg/kg/day / inhibition in vivo at 5 mg/kg/day: intragastric 5 mg/kg/d
Description: Inhibitory effects of a compound and a positive drug on the in-vivo tumor growth of a xenograft tumor model of a nude mouse on human acute monocytic leukemia cell MV-4-11 are tested.
MV-4-11 cells in a logarithmic growth phase are harvested, resuspended after cell counting, and adjusted in cell concentration to 7.0×10^7 cells/mL. The resuspended solution is injected into the right armpit of the nude mice subcutaneously. Each animal is inoculated with 200 μL (14×10^6 cells) of the suspended solution to establish a MV-4-11 xenograft tumor model. Afer the tumor volume reaches 100-300 mm^3, tumor-bearing mice in good health and similar tumor volume are selected.
The compound and the positive drug are vortexed with a suitable solvent and then ultrasonicated to completely dissolve the compound. Then, an appropriate volume of citric acid buffer is slowly added, and the mixed solution is vortexed to make the solution mixed uniformly to obtain administrative formulations having concentrations of 0.1, 0.5, and 1 mg-mL^−1.
Solvent control group: PEG400 & citric acid buffer (20:80, v:v).
The modeled mice are randomly divided into groups (n=6), and administrated with the relevant compounds and positive drugs on the day of grouping. After 21 days or after the tumor volume of the solvent control group reaches 2000 mm^3, the experiment is terminated (whichever reaches the index first), and the administration volume is 10 mL-kg^−1. Both the compound and the positive drug are administered by gavage, once a day. After the experiment starts, the tumor diameter and animal body weight are measured twice a week, and the tumor volume is calculated.
The tumor volume(TV) calculation formula is: tumor volume(mm^3)=l×w^2/2,
The calculation formula of relative tumor volume(RTV) is: RTV=TVt/TVinitial
The calculation formula of relative tumor proliferation rate (% T/C) is: % T/C=100%×(RTVT/RTVC)

[3] = read-out: Relative tumor proliferation rate (% T/C)
[4] = read-out: Tumor growth inhibition rate (TGI %)

Row | Compound | Cmax [1] [ng/mL] | Tmax [1] [h] | half-life [1] [h] | AUC(0-t) [1] [ng·h/mL] | response vs control in vivo at 5 mg/kg/day [2, 3] [%] | inhibition in vivo at 5 mg/kg/day [2, 4] [%] | response vs control in vivo at 1 mg/kg/day ([2]; intragastric 1 mg/kg/d, read-out: Relative tumor proliferation rate (% T/C)) [%] | inhibition in vivo at 1 mg/kg/day ([2]; intragastric 1 mg/kg/d, read-out: Tumor growth inhibition rate (TGI %)) [%]
1 | CP(C)(=O)c1c(Nc2nc(Nc3ccc4c(c3)CC[C@@H](N3CCCC3)CC4)ncc2Cl)ccc2nccnc12 [Example 47, (S)-(6-((5-chloro-2-((7-(pyrrolidin-1-yl)-6,7,8,9-tetrahydro-5H-benzo[7]annulen-2-yl)amino)pyrimidin-4-yl)amino)quinoxalin-5-yl)dimethyl phosphine oxide] | 69 | 1 | 2.06 | 307 | 15 | 94 |  | 
2 | COCc1ccc(Nc2nc(Nc3ccc4c(c3)CC[C@@H](N3CCCC3)CC4)ncc2Cl)c(P(C)(C)=O)c1 [Example 115, (S)-(2-((5-chloro-2-((7-(pyrrolidin-1-yl)-6,7,8,9-tetrahydro-5H-benzo[7]annulen-2-yl)amino)pyrimidin-4-yl)amino)-5-(methoxymethyl)phenyl)dimethylphosphine oxide] | 324 | 2.17 |  | 1300 | 23 | 85 |  | 
3 | CNC(=O)c1cc(F)ccc1Nc1nc(Nc2ccc3c(c2)CC[C@@H](N2CCCC2)CC3)ncc1Cl [Example 19, (S)-2-((5-chloro-2-((7-(pyrrolidin-1-yl)-6,7,8,9-tetrahydro-5H-benzo[7]annulen-2-yl)amino)pyrimidin-4-yl)amino)-5-fluoro-N-methylhenzamide] | 342 | 1 | 3.05 | 3540 |  |  | 28 | 78
4 | Cc1ccc(Nc2nc(Nc3ccc4c(c3)CC[C@@H](N3CCCC3)CC4)ncc2Cl)c(P(C)(C)=O)c1 [Example 53, (S)-(2-((5-chloro-2-((7-(pyrrolidin-1-yl)-6,7,8,9-tetrahydro-5H-benzo[7]annulen-2-yl)amino)pyrimidin-4-yl)amino)-5-methylphenyl) dimethyl phosphine oxide] | 676 | 1 | 1.81 | 2200 | 31 | 79 |  | 
5 | CP(C)(=O)c1ccccc1Nc1nc(Nc2ccc3c(c2)CC[C@@H](N2CCCC2)CC3)ncc1Cl [Example 10, (S)-(2-((5-chloro-2-((7-(pyrrolidin-1-yl)-6,7,8,9-tetrahydro-5H-benzo[7]annulen-2-yl)amino)pyrimidin-4-yl)amino)phenyl)dimethyl phosphine oxide] | 349 | 0.25 | 3.33 | 1000 | 3.7 | 106 |  | 
